Experiments:
Format in all cases: in vivo
[1] = tested on: corn (Krasnodar 385 MV variety); assay: Corn seed treatment with BHMPA salts: germination energy and germination rate
Method in brief: (§1)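 Corn, winter wheat and rice seeds (50 per dish, on filter paper) were soaked for 1 h in BHMPA or its metal salts at 1·10^−6-1·10^−12%, with water as control. Germination energy was read on day 4 and germination rate on day 8 for wheat and day 7 for rice and corn, following GOST 12038-84, as the mean of four replicates.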

[2] = tested on: winter wheat (Vershin variety); assay: Winter wheat seed treatment with BHMPA salts: germination energy and germination rate
Method in brief: as §1

[3] = tested on: winter wheat (Vershin variety); assay: Winter wheat seed treatment with BHMPA salts: germinating power (length and mass of roots and sprouts)
Method in brief: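 Seeds (50 per Petri dish on two layers of filter paper) soaked 1 h in BHMPA or its Ca, Mg, Na, Co, Mn, Cu or Zn salts at 1·10^−6-1·10^−12%, with water controls. Germination energy read on day 4, germination on day 8 (wheat) or day 7 (rice, corn), as % means of four replicates. Germinating power taken as root and sprout length plus wet and dry mass per 100 seedlings.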

[4] = comparative study vs Melaphen, 1·10^−9% solution
[5] = winter wheat Vershin, 1·10^−6% solution
[6] = winter wheat Vershin, 1·10^−7% solution
[7] = winter wheat Vershin, 1·10^−8% solution
[8] = winter wheat Vershin, 1·10^−9% solution
[9] = winter wheat Vershin, 1·10^−10% solution
[10] = winter wheat Vershin, 1·10^−11% solution
[11] = winter wheat Vershin, 1·10^−12% solution
[12] = winter wheat, comparative study vs Melaphen, 1·10^−9% solution
[13] = comparative study, 1·10^−9% solution

SMILES: O.O.O=P([O-])(CO)CO.O=P([O-])(CO)CO.[Mn+2] [Mn-salt, Manganese BHMPA Salt]
- Germination energy ([1]; 1·10^−6% solution): 81.0%
- Germination rate ([1]; 1·10^−6% solution): 83.3%
- Germination energy ([1]; 1·10^−7% solution): 82.3%
- Germination rate ([1]; 1·10^−7% solution): 85.0%
- Germination energy ([1]; 1·10^−8% solution): 84.7%
- Germination rate ([1]; 1·10^−8% solution): 87.5%
- Germination energy ([1]; 1·10^−9% solution): 87.7%
- Germination rate ([1]; 1·10^−9% solution): 88.7%
- Germination rate ([1]; 1·10^−9% solution, listed as Mn): 90.0%
- Germination energy ([1]; 1·10^−10% solution): 85.0%
- Germination rate ([1]; 1·10^−10% solution): 87.5%
- Germination energy ([1]; 1·10^−11% solution): 82.7%
- Germination rate ([1]; 1·10^−11% solution): 85.3%
- Germination energy ([1]; 1·10^−12% solution): 80.3%
- Germination rate ([1]; 1·10^−12% solution): 83.0%
- Germination energy [1, 4]: 87.3%
- Germination rate [1, 4]: 95.0%
- Germination energy [2, 5]: 72.0%
- Germination rate [2, 5]: 69.3%
- Germination energy [2, 6]: 73.6%
- Germination rate [2, 6]: 76.0%
- Germination energy [2, 7]: 77.9%
- Germination rate [2, 7]: 82.7%
- Germination energy [2, 8]: 85.5%
- Germination rate [2, 8]: 88.7%
- Germination energy [2, 9]: 83.0%
- Germination rate [2, 9]: 85.3%
- Germination energy [2, 10]: 76.1%
- Germination rate [2, 10]: 78.8%
- Germination energy [2, 11]: 71.6%
- Germination rate [2, 11]: 74.0%
- Germination energy [2, 12]: 88.0%
- Germination rate [2, 12]: 93.7%
- Length, root ([3]; 1·10^−6% solution): 2.8 cm
- Length, root, + % to control ([3]; 1·10^−6% solution): −7%
- Length, sprout ([3]; 1·10^−6% solution): 3.4 cm
- Length, sprout, + % to control ([3]; 1·10^−6% solution): −5.5%
- Mass, dry, root ([3]; 1·10^−6% solution): 0.32 g/100 plantlings
- Mass, dry, root, + % to control ([3]; 1·10^−6% solution): −2%
- Mass, dry, sprout ([3]; 1·10^−6% solution): 0.44 g/100 plantlings
- Mass, dry, sprout, + % to control ([3]; 1·10^−6% solution): −10%
- Mass, wet, root ([3]; 1·10^−6% solution): 1.38 g/100 plantlings
- Mass, wet, root, + % to control ([3]; 1·10^−6% solution): −9%
- Mass, wet, sprout ([3]; 1·10^−6% solution): 3.37 g/100 plantlings
- Mass, wet, sprout, + % to control ([3]; 1·10^−6% solution): −6%
- germinating power results vs control ([3]; 1·10^−6% solution): lower than those of the control
- Length, root ([3]; 1·10^−7% solution): 3.8 cm
- Length, root, + % to control ([3]; 1·10^−7% solution): 27%
- Length, sprout ([3]; 1·10^−7% solution): 4.8 cm
- Length, sprout, + % to control ([3]; 1·10^−7% solution): 33%
- Mass, dry, root ([3]; 1·10^−7% solution): 0.50 g/100 plantlings
- Mass, dry, root, + % to control ([3]; 1·10^−7% solution): 35%
- Mass, dry, sprout ([3]; 1·10^−7% solution): 0.58 g/100 plantlings
- Mass, dry, sprout, + % to control ([3]; 1·10^−7% solution): 18%
- Mass, wet, root ([3]; 1·10^−7% solution): 1.74 g/100 plantlings
- Mass, wet, root, + % to control ([3]; 1·10^−7% solution): 14.5%
- Mass, wet, sprout ([3]; 1·10^−7% solution): 3.84 g/100 plantlings
- Mass, wet, sprout, + % to control ([3]; 1·10^−7% solution): 7%
- Length, root ([3]; 1·10^−8% solution): 4.4 cm
- Length, root, + % to control ([3]; 1·10^−8% solution): 47%
- Length, sprout ([3]; 1·10^−8% solution): 6.0 cm
- Length, sprout, + % to control ([3]; 1·10^−8% solution): 67%
- Mass, dry, root ([3]; 1·10^−8% solution): 0.53 g/100 plantlings
- Mass, dry, root, + % to control ([3]; 1·10^−8% solution): 43%
- Mass, dry, sprout ([3]; 1·10^−8% solution): 0.67 g/100 plantlings
- Mass, dry, sprout, + % to control ([3]; 1·10^−8% solution): 37%
- Mass, wet, root ([3]; 1·10^−8% solution): 2.09 g/100 plantlings
- Mass, wet, root, + % to control ([3]; 1·10^−8% solution): 37.5%
- Mass, wet, sprout ([3]; 1·10^−8% solution): 4.52 g/100 plantlings
- Mass, wet, sprout, + % to control ([3]; 1·10^−8% solution): 25.5%
- Length, root ([3]; 1·10^−9% solution): 4.6 cm
- Length, root, + % to control ([3]; 1·10^−9% solution): 53%
- Length, sprout ([3]; 1·10^−9% solution): 7.9 cm
- Length, sprout, + % to control ([3]; 1·10^−9% solution): 119%
- Mass, dry, root ([3]; 1·10^−9% solution): 0.62 g/100 plantlings
- Mass, dry, root, + % to control ([3]; 1·10^−9% solution): 67.5%
- Mass, dry, sprout ([3]; 1·10^−9% solution): 0.84 g/100 plantlings
- Mass, dry, sprout, + % to control ([3]; 1·10^−9% solution): 71%
- Mass, wet, root ([3]; 1·10^−9% solution): 3.00 g/100 plantlings
- Mass, wet, root, + % to control ([3]; 1·10^−9% solution): 97%
- Mass, wet, sprout ([3]; 1·10^−9% solution): 5.09 g/100 plantlings
- Mass, wet, sprout, + % to control ([3]; 1·10^−9% solution): 41%
- Length, root ([3]; 1·10^−10% solution): 4.5 cm
- Length, root, + % to control ([3]; 1·10^−10% solution): 50%
- Length, sprout ([3]; 1·10^−10% solution): 7.1 cm
- Length, sprout, + % to control ([3]; 1·10^−10% solution): 97%
- Mass, dry, root ([3]; 1·10^−10% solution): 0.57 g/100 plantlings
- Mass, dry, root, + % to control ([3]; 1·10^−10% solution): 54%
- Mass, dry, sprout ([3]; 1·10^−10% solution): 0.80 g/100 plantlings
- Mass, dry, sprout, + % to control ([3]; 1·10^−10% solution): 63%
- Mass, wet, root ([3]; 1·10^−10% solution): 2.16 g/100 plantlings
- Mass, wet, root, + % to control ([3]; 1·10^−10% solution): 142%
- Mass, wet, sprout ([3]; 1·10^−10% solution): 4.60 g/100 plantlings
- Mass, wet, sprout, + % to control ([3]; 1·10^−10% solution): 28%
- Length, root ([3]; 1·10^−11% solution): 4.4 cm
- Length, root, + % to control ([3]; 1·10^−11% solution): 47%
- Length, sprout ([3]; 1·10^−11% solution): 6.1 cm
- Length, sprout, + % to control ([3]; 1·10^−11% solution): 69%
- Mass, dry, root ([3]; 1·10^−11% solution): 0.52 g/100 plantlings
- Mass, dry, root, + % to control ([3]; 1·10^−11% solution): 40.5%
- Mass, dry, sprout ([3]; 1·10^−11% solution): 0.75 g/100 plantlings
- Mass, dry, sprout, + % to control ([3]; 1·10^−11% solution): 53%
- Mass, wet, root ([3]; 1·10^−11% solution): 1.90 g/100 plantlings
- Mass, wet, root, + % to control ([3]; 1·10^−11% solution): 34%
- Mass, wet, sprout ([3]; 1·10^−11% solution): 4.00 g/100 plantlings
- Mass, wet, sprout, + % to control ([3]; 1·10^−11% solution): 11%
- Length, root ([3]; 1·10^−12% solution): 3.6 cm
- Length, root, + % to control ([3]; 1·10^−12% solution): 20%
- Length, sprout ([3]; 1·10^−12% solution): 5.2 cm
- Length, sprout, + % to control ([3]; 1·10^−12% solution): 44%
- Mass, dry, root ([3]; 1·10^−12% solution): 0.40 g/100 plantlings
- Mass, dry, root, + % to control ([3]; 1·10^−12% solution): 8%
- Mass, dry, sprout ([3]; 1·10^−12% solution): 0.69 g/100 plantlings
- Mass, dry, sprout, + % to control ([3]; 1·10^−12% solution): 31%
- Mass, wet, root ([3]; 1·10^−12% solution): 1.52 g/100 plantlings
- Mass, wet, root, + % to control ([3]; 1·10^−12% solution): 0%
- Mass, wet, sprout ([3]; 1·10^−12% solution): 3.48 g/100 plantlings
- Mass, wet, sprout, + % to control ([3]; 1·10^−12% solution): −3%
- Length, root [3, 13]: 9.8 cm
- Length, root, + % to control [3, 13]: 13%
- Length, sprout [3, 13]: 6.7 cm
- Length, sprout, + % to control [3, 13]: 8%
- Mass, dry, root [3, 13]: 0.66 g/100 plantlings
- Mass, dry, root, + % to control [3, 13]: 6%
- Mass, dry, sprout [3, 13]: 0.55 g/100 plantlings
- Mass, dry, sprout, + % to control [3, 13]: 8%
- Mass, wet, root [3, 13]: 5.69 g/100 plantlings
- Mass, wet, root, + % to control [3, 13]: 57%
- Mass, wet, sprout [3, 13]: 4.97 g/100 plantlings
- Mass, wet, sprout, + % to control [3, 13]: 25%
